Assay [1] relates to adult male Sprague Dawley rats. Put plainly: FR5/chow feeding choice task. It counts as in vivo, rat. The note with it: 1.0 mg/kg TBZ plus vehicle vs vehicle plus vehicle. Here is the method:
Pharmacological agents: (S)-MK-26 was obtained from the Lubec Laboratory (University of Vienna, Austria) and dissolved in dimethyl sulfoxide (DMSO) (10%), Tween 80 (15%), and 0.9% saline (75%). The DMSO/Tween 80/saline mixture was administered as the vehicle control. The dose range was selected as 3.75–45.0 mg/kg based on its DAT affinity and pilot studies. It was administered 30 min before testing. TBZ (9,10-dimethoxy3-(2-methylpropyl)-1,3,4,6,7, 11b hexahydrobenzo[a]quinolizin2-one) was obtained from Tocris Bioscience (Ellisville, MO) and was dissolved in DMSO (20%) and 0.9% saline (80%) and was titrated with 1.0 N HCl until the drug was dissolved at a pH of 4.0–4.5. The DMSO/saline solution with equal amounts of HCl was administered as the vehicle control. The selected dose was 1.0mg/kg based on the previous research from our laboratory. It was administered 120 min prior to testing.
FR5/chow feeding choice task: A total of 8 adult male Sprague Dawley rats (Envigo Sprague Dawley, Indianapolis, IN, USA; weights 275–299 g upon arrival) were pair-housed in a colony maintained at 23 °C, with a 12 h light/dark cycle (lights on 07:00). Rats were food deprived to 85% of their free-feeding body weight with modest growth throughout the experiment and water was available ad libitum in their home cages. All the animal protocols were approved by the University of Connecticut Institutional Animal Care and Use Committee, and the experiments were completed according to National Institutes of Health guidelines.
Behavioral sessions were conducted in operant chambers (28 × 23 × 23 cm^3; Med Associates, Fairfax, VT, USA) with 30 min sessions 5 days/week. Rats were initially trained to lever press on magazine training for 3 days, followed by an FR1 schedule for 3 days (high-carbohydrate 45-mg pellets, Bio-Serv, Frenchtown, NJ, USA), and then moved to the FR5 schedule. After 5 weeks of training on the FR5 schedule, lab chow was introduced as the concurrently available choice food (Laboratory Diet, 5P00 Prolab RMH 3000, Purina Mills, St. Louis, MO, USA; typically 15–20 g). At the end of each session, rats were immediately removed from the chambers. The number of lever pressing was recorded and the amount of consumed chow was calculated by weighing the remaining food, including spillage. Rats were trained on the FR5/chow feeding choice task for 5 weeks, after which drug testing began.
To test the effects of (S)-MK-26 on FR5/Chow feeding choice task, trained rats were administered either with TBZ (1.0 mg/kg) or vehicle 120 min before testing, and (S)-MK-26 also with doses of 15.0, 30.0, 45.0 mg/kg or vehicle 30 min before testing, via intraperitoneal (IP) injections on drug testing days. A repeated-measures design was utilized where each rat received each drug treatment in a randomly varied order, once per week. The following five treatment combinations were given: TBZ vehicle + (S)-MK-26 vehicle; 1.0 mg/kg TBZ + (S)-MK-26 vehicle; 1.0 mg/kg TBZ + 15.0 mg/kg (S)-MK-26; 1.0 mg/kg TBZ + 30.0 mg/kg (S)-MK-26; 1.0 mg/kg TBZ + 45.0 mg/kg (S)-MK-26. Next, to see if the effects of lower doses, the following four treatment combinations were given in a repeated measure design: TBZ vehicle + (S)-MK-26 vehicle; 1.0 mg/kg TBZ + (S)-MK-26 vehicle; 1.0 mg/kg TBZ + 3.75 mg/kg (S)-MK-26; 1.0 mg/kg TBZ + 7.5 mg/kg (S)-MK-26.

The target in assay [2] is T1, hDAT (Homo sapiens, UniProt Q01959).
T1 construct: expressed in transfected cells
The assay is described as follows: Uptake inhibition assay in HEK293 cells expressing hDAT. The format is cell-based. The method, then: (§1) Human embryonic kidney 293 cells (HEK293 cells) were cultivated in Dulbecco’s Modified Eagle Medium (DMEM), containing 10% heat-inactivated fetal calf serum (FCS; 100 mL/L), streptomycin (100 μg/100 mL) and penicillin ([…]). Geneticin (50 μg/mL) was added to select cells stably expressing the human isoforms of dopamine, norepinephrine and serotonin transporter (hDAT, hNET, and hSERT, respectively) as described earlier. Cell lines were maintained in culture in humidified atmosphere (37 °C, 5% CO2), and passaged when reached 80–90% confluency. Cells expressing the desired transporter were seeded the day before the experiment (40,000 cells per well) or two days before the experiments (20,000 cells per well) onto poly-D-lysine (PDL)-coated 96-well plates.
(§2) Uptake inhibition experiments were carried out as reported previously. Ninety-six-well plates containing hDAT-, hNET- or hSERT-expressing cells were washed with Krebs-HEPES buffer (KHB; 25 mM HEPES, 120 mM NaCl, 5 mM KCl, 1.2 mM CaCl2, and 1.2 mM MgSO4 and 5 mM D-glucose, pH = 7.3). Cells were then preincubated with increasing concentrations of the compound diluted in KHB for 6 min. Following the pre-incubation of the cells with the compound, the tritiated substrate (hDAT: 0.15 μM [^3H]DA; hNET: 0.05 μM [^3H]MPP^+; hSERT: 0.1 μM [^3H]5-HT) was added to the wells. The uptake was terminated by removal of tritiated substrate and by washing the cells with ice-cold KHB after 1 min (for hDAT and hSERT) or 3 min (for hNET). Thereafter, 200 μL of Ultima Gold^TM XR scintillation cocktail (PerkinElmer, MA, USA) was added, the plates were shaken and the radioactivity accumulated into the cells determined in a Wal-lac 1450 MicroBeta TriLux Liquid Scintillation Counter & Lumi (GMI, Ramsey, MN, USA). Non- specific tritiated substrate uptake was measured in the presence of 100 μM cocaine (for hDAT and hNET) or 10 μM paroxetine (for hSERT), and subtracted from the data. Uptake in the presence of test drugs was normalized to the uptake in the presence of the vehicle.

Assay [3] addresses T2, hNET (Homo sapiens, UniProt P23975).
T2 construct: expressed in transfected cells
The assay is described as follows: Uptake inhibition assay in HEK293 cells expressing hNET. It counts as cell-based. The method, then:
as §1, §2

Assay [4] deals with T3, hSERT (Homo sapiens, UniProt P31645).
T3 construct: expressed in transfected cells
The assay is described as follows: Uptake inhibition assay in HEK293 cells expressing hSERT. The format is cell-based. The method, then:
as §1
Uptake inhibition experiments were carried out as reported previously. […] Thereafter, 200 μL of Ultima Gold^TM XR scintillation cocktail (PerkinElmer, MA, USA) was added, the plates were shaken and the radioactivity accumulated into the cells determined in a Wal-lac 1450 MicroBeta TriLux Liquid Scintillation Counter & Lumi (GMI, Ramsey, MN, USA). Non- specific tritiated substrate uptake was measured in the presence of 100 μM cocaine (for hDAT and hNET) or 10 μM paroxetine (for hSERT), and subtracted from the data. […]

Assay [5] relates to DAT. Details: method as in PMID 16885432. The note with it: read-out: IC50, DAT-inhibiting power; cited from earlier work.

Bounds are passed on as bounds.

As usually defined, the IC50 is the concentration at which inhibition is half-maximal.

T2 sequence (P23975 whole entry): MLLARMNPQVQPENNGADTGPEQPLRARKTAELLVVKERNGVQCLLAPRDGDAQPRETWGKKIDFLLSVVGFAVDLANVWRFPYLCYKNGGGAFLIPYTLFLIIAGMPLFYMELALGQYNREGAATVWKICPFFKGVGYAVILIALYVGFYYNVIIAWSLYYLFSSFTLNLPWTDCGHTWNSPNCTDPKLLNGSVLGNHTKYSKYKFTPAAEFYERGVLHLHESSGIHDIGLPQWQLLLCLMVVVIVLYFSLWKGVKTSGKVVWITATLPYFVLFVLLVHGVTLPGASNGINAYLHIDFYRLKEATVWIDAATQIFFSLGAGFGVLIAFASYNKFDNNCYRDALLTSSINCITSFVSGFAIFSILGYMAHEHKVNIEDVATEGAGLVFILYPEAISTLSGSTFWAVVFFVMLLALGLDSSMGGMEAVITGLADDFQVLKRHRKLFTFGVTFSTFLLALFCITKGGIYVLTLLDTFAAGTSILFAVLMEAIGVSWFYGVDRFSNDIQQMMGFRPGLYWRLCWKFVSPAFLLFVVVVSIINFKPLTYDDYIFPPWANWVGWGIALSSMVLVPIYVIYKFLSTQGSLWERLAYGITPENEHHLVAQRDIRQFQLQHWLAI
T1 sequence (Q01959 whole entry): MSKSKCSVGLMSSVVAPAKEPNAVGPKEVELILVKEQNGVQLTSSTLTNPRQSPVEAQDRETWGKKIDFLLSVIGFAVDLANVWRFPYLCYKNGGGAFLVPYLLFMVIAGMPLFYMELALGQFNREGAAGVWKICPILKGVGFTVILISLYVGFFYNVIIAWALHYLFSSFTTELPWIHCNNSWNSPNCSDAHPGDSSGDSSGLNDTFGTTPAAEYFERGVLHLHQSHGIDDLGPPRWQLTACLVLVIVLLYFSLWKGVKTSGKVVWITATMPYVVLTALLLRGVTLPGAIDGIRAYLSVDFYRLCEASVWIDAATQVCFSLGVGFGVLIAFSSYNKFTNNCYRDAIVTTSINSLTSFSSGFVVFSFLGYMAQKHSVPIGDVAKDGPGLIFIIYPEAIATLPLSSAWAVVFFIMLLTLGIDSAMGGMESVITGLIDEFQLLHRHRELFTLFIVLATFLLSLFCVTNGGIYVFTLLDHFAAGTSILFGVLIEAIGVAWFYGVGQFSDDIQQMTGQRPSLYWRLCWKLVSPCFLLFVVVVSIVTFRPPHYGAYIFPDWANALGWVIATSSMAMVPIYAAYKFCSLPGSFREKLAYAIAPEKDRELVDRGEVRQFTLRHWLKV
T3 sequence (P31645 whole entry): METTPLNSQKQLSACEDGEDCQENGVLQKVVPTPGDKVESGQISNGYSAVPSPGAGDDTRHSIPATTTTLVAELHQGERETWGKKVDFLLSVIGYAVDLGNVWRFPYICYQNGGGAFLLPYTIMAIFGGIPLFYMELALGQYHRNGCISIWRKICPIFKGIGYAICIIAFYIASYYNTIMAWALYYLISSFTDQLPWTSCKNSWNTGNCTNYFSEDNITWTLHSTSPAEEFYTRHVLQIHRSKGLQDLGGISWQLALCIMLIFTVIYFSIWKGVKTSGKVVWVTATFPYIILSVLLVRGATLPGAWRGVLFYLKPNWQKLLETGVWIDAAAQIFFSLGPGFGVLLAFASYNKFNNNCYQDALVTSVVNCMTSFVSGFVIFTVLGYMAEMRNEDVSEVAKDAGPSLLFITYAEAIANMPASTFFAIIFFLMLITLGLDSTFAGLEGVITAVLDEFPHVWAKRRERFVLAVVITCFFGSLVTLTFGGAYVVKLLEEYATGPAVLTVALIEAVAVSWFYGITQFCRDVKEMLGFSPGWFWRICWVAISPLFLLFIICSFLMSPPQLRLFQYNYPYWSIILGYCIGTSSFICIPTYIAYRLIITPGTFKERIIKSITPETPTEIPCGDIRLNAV

In the case of `COc1cc2c(cc1OC)C1CC(=O)C(CC(C)C)CN1CC2` (stereo not shown) [TBZ, 9,10-dimethoxy3-(2-methylpropyl)-1,3,4,6,7, 11b hexahydrobenzo[a]quinolizin2-one, reference compound], in assay [1], the “effect on chow intake” value is reported as “increasing chow intake” and the “effect on lever pressing” value is recorded as “decreasing lever pressing”. With `[O-][S@+](Cc1cncs1)C(c1cccc(Cl)c1)c1cccc(Cl)c1` [(R)-MK-26, (R)-5-(((bis(3-chlorophenyl)methyl)sulphinyl)methyl)thiazole], the figures for the IC50 in assay [2], in assay [3] and in assay [4] were 36.3 µM, 2.16 mM and above 1 mM, respectively. Take `NC(=O)C[S+]([O-])C(c1ccccc1)c1ccccc1` (racemic) [modafinil]: the IC50 in assay [5] was […]. Consider `NC(=O)C[S@@+]([O-])C(c1ccccc1)c1ccccc1` [(R)-Modafinil, reference compound], for which 0.127 mM corresponded to half-maximal inhibition in assay [3] (IC50).

The values are drawn from PMC9312958, “A Novel and Selective Dopamine Transporter Inhibitor, (S)-MK-26, Promotes Hippocampal Synaptic Plasticity and Restores Effort-Related Motivational Dysfunctions” (Biomolecules, 2022).
